Source: ChEMBL document CHEMBL1122712, “[(E)-1-[123I]Iodo-1-penten-5-yl]triphenylphosphonium iodide: convenient preparation of a potentially useful myocardial perfusion agent” (J Med Chem, 1984)
Several values for one entry are separate records, joined by “and”; a condition that tells them apart may be missing. Equal values may be shown once.

What was measured:
Format in all cases: ADME, organism-based
[1] = test system: Rattus norvegicus; experiment: Distribution of radioactivity in the female rat lung tissues after intravenous administration after 3 days was determined; details: in vivo, 72 h
[2] = test system: Rattus norvegicus; experiment: Distribution of radioactivity in the female rat kidney tissues after intravenous administration after 3h was determined; details: in vivo
[3] = test system: Rattus norvegicus; experiment: Distribution of radioactivity in the female rat kidney tissues after intravenous administration after 3 days was determined; details: in vivo, 72 h
[4] = test system: Rattus norvegicus; experiment: Distribution of radioactivity in the female rat blood tissues after intravenous administration after 60 min was determined; details: in vivo, 1 h
[5] = test system: Rattus norvegicus; experiment: Distribution of radioactivity in the female rat blood tissues after intravenous administration after 30 min was determined; details: in vivo, 0.5 h
[6] = test system: Rattus norvegicus; experiment: Distribution of radioactivity in the female rat liver tissues after intravenous administration after 60 min was determined; details: in vivo, 1 h
[7] = test system: Rattus norvegicus; experiment: Distribution of radioactivity in the female rat heart tissues after intravenous administration after 5 min was determined; details: in vivo
[8] = test system: Rattus norvegicus; experiment: Distribution of radioactivity in the female rat liver tissues after intravenous administration after 3h was determined; details: in vivo
[9] = test system: Rattus norvegicus; experiment: Distribution of radioactivity in the female rat blood tissues after intravenous administration after 3h was determined; details: in vivo
[10] = test system: Rattus norvegicus; experiment: Distribution of radioactivity in the female rat lung tissues after intravenous administration after 1 day was determined; details: in vivo, 24 h
[11] = test system: Rattus norvegicus; experiment: Distribution of radioactivity in the female rat heart tissues after intravenous administration after 3h was determined; details: in vivo
[12] = test system: Rattus norvegicus; experiment: Distribution of radioactivity in the female rat blood tissues after intravenous administration after 1 day was determined; details: in vivo, 24 h
[13] = test system: Rattus norvegicus; experiment: Distribution of radioactivity in the female heart rat tissues after intravenous administration after 3 days was determined; details: in vivo, 72 h
[14] = test system: Rattus norvegicus; experiment: Distribution of radioactivity in the female rat kidney tissues after intravenous administration after 60 min was determined; details: in vivo, 1 h
[15] = test system: Rattus norvegicus; experiment: Distribution of radioactivity in the female liver rat tissues after intravenous administration after 30 min was determined; details: in vivo, 0.5 h
[16] = test system: Rattus norvegicus; experiment: Distribution of radioactivity in the female rat heart tissues after intravenous administration after 30 min was determined; details: in vivo, 0.5 h
[17] = test system: Rattus norvegicus; experiment: Distribution of radioactivity in the female rat liver tissues after intravenous administration after 30 min was determined; details: in vivo, 0.5 h
[18] = test system: Rattus norvegicus; experiment: Distribution of radioactivity in the female rat kidney tissues after intravenous administration after 1 day was determined; details: in vivo, 24 h
[19] = test system: Rattus norvegicus; experiment: Distribution of radioactivity in the female rat lung tissues after intravenous administration after 3h was determined; details: in vivo
[20] = test system: Rattus norvegicus; experiment: Distribution of radioactivity in the female rat kidney tissues after intravenous administration after 5 min was determined; details: in vivo
[21] = test system: Rattus norvegicus; experiment: Distribution of radioactivity in the female rat kidney tissues after intravenous administration after 30 min was determined; details: in vivo, 0.5 h
[22] = test system: Rattus norvegicus; experiment: Distribution of radioactivity in the female rat heart tissues after intravenous administration after 3 days was determined; details: in vivo, 72 h
[23] = test system: Rattus norvegicus; experiment: Distribution of radioactivity in the female rat lung tissues after intravenous administration after 60 min was determined; details: in vivo, 1 h
[24] = test system: Rattus norvegicus; experiment: Distribution of radioactivity in the female rat blood tissues after intravenous administration after 3 days was determined; details: in vivo, 72 h
[25] = test system: Rattus norvegicus; experiment: Distribution of radioactivity in the female rat lung tissues after intravenous administration after 30 min was determined; details: in vivo, 0.5 h
[26] = test system: Rattus norvegicus; experiment: Distribution of radioactivity in the female rat heart tissues after intravenous administration after 1 day was determined; details: in vivo, 24 h
[27] = test system: Rattus norvegicus; experiment: Distribution of radioactivity in the female rat heart tissues after intravenous administration after 60 min was determined; details: in vivo, 1 h
[28] = test system: Rattus norvegicus; experiment: Distribution of radioactivity in the female rat liver tissues after intravenous administration after 1 day was determined; details: in vivo, 24 h
[29] = test system: Rattus norvegicus; experiment: Distribution of radioactivity in the female rat liver tissues after intravenous administration after 3 days was determined; details: in vivo, 72 h
[30] = test system: Rattus norvegicus; experiment: Distribution of radioactivity in the female rat blood tissues after intravenous administration after 5 min was determined; details: in vivo
[31] = test system: Rattus norvegicus; experiment: Distribution of radioactivity in the female rat lung tissues after intravenous administration after 5 min was determined; details: in vivo

For `I/C=C/CCC[P+](c1ccccc1)(c1ccccc1)c1ccccc1.[I-]`, the Activity [1] was 0.102% and 0.91%, the Activity [2] was 4.38% and 2.75% and the Activity [3] was 0.22% and 0.15%. The Activity [4] was 1.14% and 0.11%, the Activity [5] was 1.59% and 0.15% and the Activity [6] was 2.64% and 0.25%. The Activity [7] was 1.49% and 2.38%, the Activity [8] was 0.74% and 0.09% and the Activity [9] was 0.96% and 0.08%. The Activity [10] was 0.19% and 0.17%, the Activity [11] was 1.54% and 2.21% and the Activity [12] was 0.2% and 0.01%. The Activity [13] was 0.64%, the Activity [14] was 7.95% and 5.06% and the Activity [15] was 5.59%. For the same compound, the Activity [16] was 1.6% and 2.31%, the Activity [17] was 0.75% and the Activity [18] was 0.79% and 0.46%. The Activity [19] was 0.61% and 0.49%, the Activity [20] was 13.72% and 7.08% and the Activity [21] was 13.11% and 8.91%. For the same compound, the Activity [22] was 1%, the Activity [23] was 0.75% and 0.65% and the Activity [24] was 0.093% and 0.009%. The Activity [25] was 0.79% and 0.64%, the Activity [26] was 1.18% and 1.58% and the Activity [27] was 1.83% and 2.59%. For the same compound, the Activity [28] was 0.18% and 0.02%, the Activity [29] was 0.13% and 0.019% and the Activity [30] was 1.58% and 0.14%. For the same compound, the Activity [31] was 0.89% and 0.75%.
